Drawing on patent US8822449B2, “Substituted aminoindanes and analogs thereof, and the pharmaceutical use thereof” (Sanofi, priority 2008, dated 2014), this text covers inhibition and IC50 for 29 compounds.

This assay concerns the target T1, sodium-proton exchanger of subtype 3 (NHE3) (Homo sapiens, UniProt P48764).
T1 construct: expressed in transfected cells
T1 sequence (P48764 26-834): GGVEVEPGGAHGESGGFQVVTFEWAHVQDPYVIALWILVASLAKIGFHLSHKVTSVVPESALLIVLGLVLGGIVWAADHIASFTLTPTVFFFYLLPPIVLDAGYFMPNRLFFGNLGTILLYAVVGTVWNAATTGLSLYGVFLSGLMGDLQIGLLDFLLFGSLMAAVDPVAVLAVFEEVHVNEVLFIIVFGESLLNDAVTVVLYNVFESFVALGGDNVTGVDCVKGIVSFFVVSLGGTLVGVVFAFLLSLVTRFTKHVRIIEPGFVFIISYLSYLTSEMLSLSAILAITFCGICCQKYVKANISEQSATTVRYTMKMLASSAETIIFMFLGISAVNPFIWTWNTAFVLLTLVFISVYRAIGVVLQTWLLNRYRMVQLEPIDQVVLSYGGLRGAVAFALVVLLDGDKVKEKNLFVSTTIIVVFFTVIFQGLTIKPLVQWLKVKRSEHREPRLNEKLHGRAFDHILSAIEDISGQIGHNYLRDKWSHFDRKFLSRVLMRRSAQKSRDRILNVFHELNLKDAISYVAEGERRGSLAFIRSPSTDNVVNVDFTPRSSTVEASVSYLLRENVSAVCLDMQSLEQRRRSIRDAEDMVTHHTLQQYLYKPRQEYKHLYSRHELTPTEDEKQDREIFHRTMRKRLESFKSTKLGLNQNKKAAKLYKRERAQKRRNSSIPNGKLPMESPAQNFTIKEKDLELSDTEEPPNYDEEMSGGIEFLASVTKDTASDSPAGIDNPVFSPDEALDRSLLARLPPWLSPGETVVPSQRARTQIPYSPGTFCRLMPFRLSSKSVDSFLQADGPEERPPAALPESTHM
The experiment in a line: Recovery of intracellular pH (pHi) after acidification in LAP1 cells stably expressing NHE3 (BCECF fluorescence, FLIPR). In kind it is cell-based.

[1] abbreviates: LAP1 cells stably expressing NHE3, pH recovery after acidification, range 1 is % inhibition at 10 μM, read-out: Activity range (inhibitory effect on NHE3).

The structures appear in SMILES notation. pIC50: −log10 of the molar value. Read-outs that look alike come from different tables or passages of the source. A value given as a limit tells only on which side of the number the result lay.

Take `Clc1cnccc1O[C@H]1c2ccccc2C[C@@H]1CN1CCOCC1` (racemic) [Example 486, 4-[1-(3-chloropyridin-4-yloxy)indan-2-ylmethyl]morpholine]: the inhibition at 10 µM under setting [1] fell in the range of 20 to 50%. `CS(=O)(=O)c1ccc(O[C@H]2c3cc(Cl)cc(Cl)c3C[C@@H]2N2CCC[C@@H](NCCF)C2)cc1` [Example 222, {(R)-1-[trans-(1S,2S)-4,6-dichloro-1-(4-methanesulfonylphenoxy)indan-2-yl]piperidin-3-yl}-(2-fluoroethyl)amine]: under setting [1], the pIC50 was more than 6.00.

With `CCn1cnn(-c2ccc(O[C@H]3c4cc(Cl)cc(Cl)c4C[C@@H]3N3CC[C@@H](O)C3)cc2)c1=O` [Example 736, 2-{4-[trans-(1S,2S)-4,6-Dichloro-2-((R)-3-hydroxy-pyrrolidin-1-yl)-indan-1-yloxy]-phenyl}-4-ethyl-2,4-dihydro-[1,2,4]triazol-3-one], the pIC50 under setting [1] is 5.00 to 6.00. With `CCc1nc(C)cn1-c1ccc(F)c(O[C@H]2c3cc(Cl)cc(Cl)c3C[C@@H]2N2CC[C@@H](O)C2)c1` [Example 725, (R)-1-{trans-(1S,2S)-4,6-Dichloro-1-[5-(2-ethyl-4-methyl-imidazol-1-yl)-2-fluoro-phenoxy]-indan-2-yl}-pyrrolidin-3-ol], under setting [1], the pIC50 was 5.00 to 6.00. The same measure, in the same setting: then `CN1CCN(c2ccc(F)c(O[C@H]3c4cc(Cl)cc(Cl)c4C[C@@H]3N3CC[C@@H](O)C3)c2)C1=O` [Example 314, 1-{3-[(1S,2S)-4,6-dichloro-2-((R)-3-hydroxypyrrolidin-1-yl)indan-1-yloxy]-4-fluorophenyl}-3-methylimidazolidin-2-one], with more than 6.00; and `Cc1nn(-c2ccc(O[C@H]3c4cc(Cl)cc(Cl)c4C[C@@H]3N3CC[C@@H](O)C3)cc2)c(=O)o1` [Example 733, 3-{4-[trans-(1S,2S)-4,6-Dichloro-2-((R)-3-hydroxy-pyrrolidin-1-yl)-indan-1-yloxy]-phenyl}-5-methyl-3H-[1,3,4]oxadiazol-2-one], with 5.00 to 6.00. Regarding `Cc1nnc(C)n1-c1ccc(O[C@H]2c3cc(Cl)ccc3C[C@@H]2N2CCCC2)c(Cl)c1` [Example 492, 4-[3-chloro-4-(trans-(1S,2S)-6-chloro-2-pyrrolidin-1-ylindan-1-yloxy)phenyl]-3,5-dimethyl-4H-[1,2,4]triazole], the pIC50 under setting [1] is more than 6.00.

Regarding `N#Cc1cc(Cl)ccc1O[C@H]1c2ccccc2CC[C@@H]1N1CCC[C@@H](N)C1` (racemic) [Example 366, 2-[rac-trans-(1,2)-2-((R)-3-aminopiperidin-1-yl)-1,2,3,4-tetrahydronaphthalen-1-yloxy]-5-chlorobenzonitrile], the inhibition at 10 µM under setting [1] lay within 20 to 50%.

Regarding `Cc1cn(-c2ccc(O[C@H]3c4cc(Cl)cc(F)c4C[C@@H]3N3CC[C@@H](O)C3)cc2)c(C(C)C)n1` [Example 720, (R)-1-{trans-(1S,2S)-6-Chloro-4-fluoro-1-[4-(2-isopropyl-4-methyl-imidazol-1-yl)-phenoxy]-indan-2-yl}-pyrrolidin-3-ol], the pIC50 under setting [1] was 5.00 to 6.00. Take `NCC1CCN([C@@H]2Cc3ccccc3[C@H]2Oc2ccc(S(N)(=O)=O)c(Cl)c2Cl)CC1` (racemic) [Example 545, 4-[rac-trans-(1,2)-2-(4-aminomethylpiperidin-1-yl)indan-1-yloxy]-2,3-dichlorobenzenesulfonamide]: under setting [1], the pIC50 was 5.00 to 6.00. Take `N[C@H]1CCCN([C@H]2CCc3ccccc3[C@@H]2Oc2ccnc(Cl)c2)C1` (racemic) [Example 153, (S)-1-[rac-trans-(1,2)-1-(2-chloropyridin-4-yloxy)-1,2,3,4-tetrahydronaphthalen-2-yl]piperidin-3-ylamine]: the inhibition at 10 µM under setting [1] fell in the range of 20 to 50%.

`Cc1c(O[C@H]2c3cc(Cl)cc(Cl)c3C[C@@H]2N2CC[C@@H](O)C2)cccc1-n1ccn(C)c1=O` [Example 312, 1-{3-[(1S,2S)-4,6-dichloro-2-((R)-3-hydroxypyrrolidin-1-yl)indan-1-yloxy]-2-methylphenyl}-3-methyl-1,3-dihydroimidazol-2-one]: under setting [1], the inhibition at 10 µM fell in the range of 20 to 50%. As to `CS(=O)(=O)c1ccc(O[C@@H]2c3ccccc3C[C@H]2NCC2CCC2)cc1` (racemic) [Example 717, Cyclobutylmethyl-[rac-trans-(1,2)-1-(4-methanesulfonyl-phenoxy)-indan-2-yl]-amine], the pIC50 under setting [1] was 5.00 to 6.00. With `NS(=O)(=O)c1ccc(O[C@H]2c3ccccc3C[C@@H]2CN2CCCC2)c(F)c1` (racemic) [Example 452, 3-fluoro-4-(2-pyrrolidin-1-ylmethylindan-1-yloxy)benzenesulfonamide], the pIC50 under setting [1] is 5.00 to 6.00. As for `CC(=O)Nc1cccc(O[C@H]2c3cc(Cl)cc(Cl)c3C[C@@H]2N2CCOCC2)c1` (racemic) [Example 646, N-[3-(rac-trans-(1,2)-4,6-dichloro-2-morpholin-4-ylindan-1-yloxy)phenyl]acetamide], the inhibition at 10 µM under setting [1] lay in the range of 20 to 50%. On to `CC(=O)Nc1cccc(OC2c3ccccc3CC2N(C)C)c1` (racemic) [Example 638, N-[3-(rac-trans-(1,2)-2-dimethylaminoindan-1-yloxy)phenyl]acetamide], for which the pIC50 under setting [1] is 5.00 to 6.00. Consider `CS(=O)(=O)c1ccc(O[C@H]2c3c(Cl)sc(Cl)c3CC[C@@H]2N2CCCC2)cc1` (racemic) [Example 253, 1-[1,3-dichloro-4-(4-methanesulfonylphenoxy)-4,5,6,7-tetrahydrobenzo[c]thiophen-5-yl]pyrrolidine], for which, for the setting “LAP1, read-out: Activity range (inhibitory effect on NHE3)”, the inhibition at 10 µM fell in the range of 20 to 50%. On to `NS(=O)(=O)c1ccc(O[C@H]2c3ccccc3C[C@@H]2CN2CCCCC2)c(Cl)c1` (racemic) [Example 440, 3-chloro-4-(2-piperidin-1-ylmethylindan-1-yloxy)benzenesulfonamide], for which, under setting [1], the inhibition at 10 µM fell in the range of 20 to 50%. Take `N[C@@H]1CCCN([C@@H]2Cc3ccccc3[C@H]2Oc2ccc(N3CCNCC3)cc2)C1` (racemic) [Example 76, (R)-1-[rac-trans-(1,2)-1-(4-piperazin-1-ylphenoxy)indan-2-yl]piperidin-3-ylamine]: the pIC50 under setting [1] is 5.00 to 6.00. For `CN(CCO)[C@H]1Cc2c(Cl)cc(Cl)cc2[C@@H]1Oc1ccc(S(C)(=O)=O)cc1` [Example 702, 2-{[trans-(1S,2S)-4,6-Dichloro-1-(4-methanesulfonyl-phenoxy)-indan-2-yl]-methyl-amino}-ethanol], under setting [1], the pIC50 was more than 6.00.

Turning to `CC1(C)OC(=O)N(c2ccc(Cl)c(O[C@H]3c4cc(Cl)cc(Cl)c4C[C@@H]3N3CC[C@@H](O)C3)c2)C1=O` [Example 432, 3-{4-chloro-3-[(1S,2S)-4,6-dichloro-2-((R)-3-hydroxypyrrolidin-1-yl)indan-1-yloxy]phenyl}-5,5-dimethyloxazolidine-2,4-dione], under setting [1], the pIC50 is 5.00 to 6.00.

For `COCCc1ccc(O[C@H]2c3ccccc3CC[C@@H]2N2CCC[C@@H](N)C2)cc1` (racemic) [Example 115, (R)-1-{rac-trans-(1,2)-1-[4-(2-methoxyethyl)phenoxy]-1,2,3,4-tetrahydronaphthalen-2-yl}piperidin-3-ylamine], under setting [1], the inhibition at 10 µM lay in the range of 20 to 50%.

Turning to `C[C@@]1(N2CCCC2)Cc2ccccc2[C@H]1Oc1ccc(S(C)(=O)=O)cc1` (racemic) [Example 252, 1-[1-(4-methanesulfonylphenoxy)-2-methylindan-2-yl]pyrrolidine], under setting [1], the inhibition at 10 µM lay within 20 to 50%.

Consider `Cc1ccc(F)c(O[C@H]2c3ccccc3CC[C@@H]2N2CCC[C@H](N)C2)c1` (racemic) [Example 155, (S)-1-[rac-trans-(1,2)-1-(2-fluoro-5-methylphenoxy)-1,2,3,4-tetrahydronaphthalen-2-yl]piperidin-3-ylamine], for which, under setting [1], the inhibition at 10 µM lay in the range of 20 to 50%. The same measure, in the same setting: then `COC(=O)c1ccc(O[C@H]2c3cc(Cl)ccc3C[C@@H]2N2CC[C@@H](O)C2)c(Cl)c1` [Example 446, 3-chloro-4-[trans-(1S,2S)-6-chloro-2-((R)-3-hydroxypyrrolidin-1-yl)indan-1-yloxy]benzoic acid methyl ester], with 20 to 50%.

Regarding `CN1CCN(c2ccc(O[C@H]3c4cc(Cl)cc(Cl)c4C[C@@H]3N3CC[C@@H](O)C3)cc2)C1=O` [Example 332, 1-{4-[trans-(1S,2S)-4,6-dichloro-2-((R)-3-hydroxypyrrolidin-1-yl)indan-1-yloxy]phenyl}-3-methylimidazolidin-2-one], the pIC50 under setting [1] is 5.00 to 6.00. `COc1ccc(C)cc1O[C@@H]1c2ccccc2C[C@H]1N1CCC(CN)CC1` (racemic) [Example 606, C-{1-[rac-trans-(1,2)-1-(2-methoxy-5-methylphenoxy)indan-2-yl]piperidin-4-yl}methylamine]: under setting [1], the pIC50 was 5.00 to 6.00. For the compound `CS(=O)(=O)c1ccc(O[C@H]2c3cc(Cl)ccc3C[C@@H]2N2CC[C@@H](O)C2)c(Cl)c1` [Example 107, (R)-1-[trans-(1S,2S)-6-chloro-1-(2-chloro-4-methanesulfonylphenoxy)indan-2-yl]pyrrolidin-3-ol], the pIC50 under setting [1] was 5.00 to 6.00.

As to `COC(=O)c1ccc(O[C@H]2c3ccccc3C[C@@H]2N2CCCC2)cc1` (racemic) [Example 467, 4-(rac-trans-(1,2)-2-pyrrolidin-1-ylindan-1-yloxy)benzoic acid methyl ester], the pIC50 under setting [1] is 5.00 to 6.00.
